Experimental data taken from patent publication EP4721758A1, “NOVEL MEDICINE FOR TREATING OSTEOSARCOMA” (Japanese Foundation For Cancer Research, priority 2023, dated 2024).

What was measured:
Sa-xeno-147 cells = test: Cell viability (CellTiter-Glo); type: cell-based, human; settings: for cell viability: BH3 mimetic drug sensitivity, Fig. 4-1; for IC50 values: in the presence of 40 nM obatoclax, 72 hours, Fig. 4-5
Method: (§1) Specifically, four types of osteosarcoma cells (i.e., NOS-10 cells, Sa-xeno-147 cells, G-292 cells, and Sa-xeno-184 cells) were treated with six types of BH3 mimetics (i.e., obatoclax, navitoclax, venetoclax, A-1331852, AZD5991, and MIK665), and the cell viability of the osteosarcoma cells was measured.
(§2) Specifically, the present inventors investigated the combined effects of 40 nM obatoclax with DOX (Fig. 4-4(E), Fig. 4-5(A)), with CDDP (Fig. 4-4(F), Fig. 4-5(B)), and with MTX (Fig. 4-4(G), Fig. 4-5(C)) on cell viability in NOS-10 cells and Sa-xeno-147 cells. Cell viability was measured for each cell 72 hours after each drug treatment using CellTiter-Glo assay reagent. All data are shown as mean ± SD (n = 3). IC50 values were calculated and the data were graphed using GraphPad Prism.

NOS-10 cells [1] = test: Cell viability (CellTiter-Glo); type: cell-based, human; settings: for IC50 values: in the presence of 40 nM obatoclax, Fig. 4-4; for IC50 value / growth inhibitory effect: IGF-1R inhibitor in combination with Mcl-1 inhibitors such as obatoclax, AZD5991, and MIK665, Fig. 5-1
Method: In this example, the drug sensitivity of MIK665, an Mcl-1 inhibitor, was evaluated in NOS-10 cells. Various concentrations (i.e., 0, 1, 3, 10, 30, 100, 300, 1000, 3000, 10000, 30000 nM) of MIK665 (TargetMol) were administered, and cell viability was measured using CellTiter-Glo assay reagent 72 hours after drug treatment. As a control, osteosarcoma cells MG-63 cells, without amplification of the copy number of MCL1, were used. Data are shown as MG-63 mean ± SD (n = 3).
as §1
Meanwhile, the combined effect of AZD5991 and 3 µ(micro)M Navitoclax on cell viability of NOS-10 cells was examined. Cell viability was measured using CellTiter-Glo assay reagent 72 hours after drug treatment. Data are shown as mean ± SD (n = 3).
as §2
To identify suitable combination partners of Mcl-1 inhibitors such as obatoclax for osteosarcoma treatment, further drug screening was performed using an in-house library of inhibitors in the presence of obatoclax in osteosarcoma cells. Specifically, the effect of combination of 35 nM obatoclax with an inhibitor out of 94 molecular targeted drugs in the library on cell viability of NOS-10 cells was examined. Cell viability was measured using CellTiter-Glo assay reagent 72 hours after the cells were treated with each combination of drugs. All data are shown as mean ± SD (n = 3). GraphPad Prism was used to calculate IC50 values and graph the data.

Sa-xeno-184 cells = test: Cell viability, BH3 mimetic drug sensitivity; type: cell-based, human; settings: cells with MCL1 amplification, Fig. 4-1
Method: as §1

Mcl-1 [2] = biological target: T1, Mcl-1 (Homo sapiens, UniProt Q07820); settings: cited from earlier work
T1 sequence (Q07820 whole entry): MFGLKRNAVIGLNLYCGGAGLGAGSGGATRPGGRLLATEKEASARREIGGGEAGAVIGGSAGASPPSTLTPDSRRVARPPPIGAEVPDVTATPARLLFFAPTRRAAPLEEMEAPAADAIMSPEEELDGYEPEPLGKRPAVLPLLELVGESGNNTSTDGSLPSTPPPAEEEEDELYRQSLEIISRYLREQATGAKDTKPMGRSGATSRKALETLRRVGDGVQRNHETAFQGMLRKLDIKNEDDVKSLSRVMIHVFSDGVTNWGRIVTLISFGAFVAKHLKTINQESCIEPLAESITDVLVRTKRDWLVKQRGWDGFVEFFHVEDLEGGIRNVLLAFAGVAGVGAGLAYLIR

BCL-xL = BCL-xL (Homo sapiens, UniProt Q07817); settings: cited from earlier work
Sequence of BCL-xL (Q07817 whole entry): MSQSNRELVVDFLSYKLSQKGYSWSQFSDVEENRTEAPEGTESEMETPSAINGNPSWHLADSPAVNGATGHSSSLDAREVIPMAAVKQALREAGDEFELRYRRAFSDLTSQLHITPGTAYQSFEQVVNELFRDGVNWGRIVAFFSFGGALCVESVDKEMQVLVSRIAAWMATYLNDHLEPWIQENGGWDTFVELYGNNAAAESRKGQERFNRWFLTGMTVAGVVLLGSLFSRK

BCL-2 = BCL-2 (Homo sapiens, UniProt P10415); settings: cited from earlier work
Sequence of BCL-2 (P10415 whole entry): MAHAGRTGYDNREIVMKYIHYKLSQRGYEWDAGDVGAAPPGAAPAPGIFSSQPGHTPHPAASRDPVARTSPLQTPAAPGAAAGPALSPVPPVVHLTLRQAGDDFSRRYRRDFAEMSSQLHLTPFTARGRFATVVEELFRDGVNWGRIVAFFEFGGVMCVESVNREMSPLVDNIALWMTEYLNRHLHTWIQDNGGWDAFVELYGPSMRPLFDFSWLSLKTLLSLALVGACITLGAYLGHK

osteosarcoma cells [3] = test: Inhibitor library drug screening, cell viability (CellTiter-Glo); type: cell-based, human; settings: nine osteosarcoma cell lines and two PDC, 72 hours, heatmap Fig. 1A
Method: The nine human osteosarcoma cell lines (MG-63 cells, NY cells, HOS cells, HuO9 cells, HuO-3N1 cells, SJSA-1 cells, NOS-1 cells, NOS-10 cells, and G-292 clone A141B1 (G-292) cells) were purchased from the American Type Culture Collection, the RIKEN BioResource Research Center, or the Japanese Collection of Research Bioresources Cell Bank (JCRC) and used at lower passage numbers.
Specifically, • MG-63 cells, NY cells, and HOS cells were cultured in 96-well plates using MEM (Wako) comprising 10% FBS (CORNING), 1% non-essential amino acid solution (Wako), and 100 µ(micro)g/mL kanamycin (MEIJI), • HuO9 cells, HuO-3N1 cells, SJSA-1 cells, NOS-1 cells, and NOS-10 cells were cultured in 96-well plates using RPMI-1640 medium (Wako) comprising 10% FBS and 100 µ(micro)g/mL kanamycin. • G-292 clone A141B1 (G-292) cells were cultured in 96-well plate using McCoy's 5a medium comprising 10% FBS, • Sa-xeno-147 and Sa-xeno-184 cell lines were developed from patient-derived xenograft tumors and were cultured in collagen-coated dishes with RPMI 1640/Ham's F12 (1:1) medium comprising 15% FBS, 20 mM HEPES, and antibiotic-antimycotic solution (Sigma-Aldrich). Cells were cultured at 37°C and 5% CO2.
Cells were seeded in triplicate in 96-well plates (Greiner) or type I collagen-coated plates (IWAKI) at a density of 2000 cells/well and cultured for at least 24 h. After 72 hours of incubation with any of the 96 compounds of the library of the inhibitors, cells were incubated with CellTiter-Glo reagent (Promega) for 2 minutes on a Titramax 100 plate shaker (Heidolph), and after 10 minutes of equilibration, cell viability assays of each osteosarcoma cell were performed by measuring luminescence using a Tristar LB941 multimode microplate reader (Berthold Technologies). The cell viability was calculated as a ratio of the DMSO control to evaluate their effects on osteosarcoma cell proliferation (n=2).

topoisomerase = settings: cited from earlier work
G-292 cells = test: Cell viability, BH3 mimetic drug sensitivity; type: cell-based, human; settings: cells with BCL2L1 amplification, Fig. 4-1
Method: as §1

osteosarcoma cells [4] = test: Cell viability, combined use of Mcl-1 inhibitor and Bcl-xL inhibitor; type: cell-based
Excerpt: In this example, AZD5991 or MIK665 was used as an Mcl-1 inhibitor, and A-1331852 was used as a Bcl-xL inhibitor.

[5] = serum; read-out: maximum concentration of obatoclax in serum (Cmax); cited from earlier work
osteosarcoma cell lines = test: IC50 of obatoclax, cell viability (CellTiter-Glo); type: cell-based; settings: Homo sapiens; 11 osteosarcoma cell lines; 72 hours; compared with Cmax; Fig. 4-3
Method: In this example, G-292 cells, NY cells, NOS-1 cells, NOS-10 cells, HuO9 cells, SJSA-1 cells, MG-63 cells, HuO-3N1 cells, HOS cells, Sa-xeno-147 cells, and Sa-xeno-184 cells were used as osteosarcoma cell lines, and LC-2/ad cells, H2228 cells, H226 cells, H3122 cells, and A549 cells were used as lung adenocarcinoma cell lines.
After 72 hours from treatment with obatoclax, the cell viability of each cell was measured using the CellTiter-Glo Assay reagent. The IC50 value was calculated using Prism software.

Mcl-1 [6] = biological target: T1, Mcl-1; settings: cited from earlier work; remark: listed apart in the source
NOS-10 cells [7] = test: Mouse xenograft model, tumor volume; type: in vivo, SCID beige mice; settings: obatoclax 5 mg/kg, OSI906 25 mg/kg, orally three times a week; MCL1-amplified xenograft; Fig. 6-2 (B)
Method: Using obatoclax or AZD5991 as an Mcl-1 inhibitor, the present inventors used mouse xenograft models of osteosarcoma with MCL1-amplified osteosarcoma (NOS-10 cells) and without MCL1-amplified osteosarcoma (Sa-xeno-147 cells) to determine the efficacy of the combination of obatoclax or AZD5991 with OSI906. To prevent side effects such as weight loss, the drugs were administered three times a week at relatively low concentrations (experimental schemes are shown in Figures 5A and 5D). The changes in tumor volume of NOS-10 cells and Sa-xeno-147 cells by treatment of drugs was examined as follows. NOS-10 cells or Sa-xeno-147 cells were subcutaneously inoculated into immunodeficient SCID beige mice (CB17.Cg-PrkdcscidLystbg-J/CrlCrlj, Charles River Laboratories, Inc.) (5-6×10^6 cells/mouse or 1×10^6 cells/mouse) and orally treated three times a week with vehicle (30% PEG400, 0.5% Tween80, 5% propylene glycol in water), with obatoclax (5 mg/kg), with OSI906 (25 mg/kg), or with obatoclax + OSI906 (5 mg/kg and 25 mg/kg, respectively). […] All data are shown as mean ± SD (n = 4, n = 5, or n = 6). *p < 0.05 and **p < 0.01 are determined using the Mann-Whitney U test.

[8] = BH3 mimetic drug sensitivity, cells with MCL1 amplification, Fig. 4-1

MIK665
cell viability (Sa-xeno-147 cells): moderate inhibitory effects | cell viability (NOS-10 cells [1]; [8]): reduce cell viability at relatively low concentrations | cell viability (NOS-10 cells [1]; low concentrations of MIK665 (range 0-30000 nM), 72 hours, compared to MG-63 cells without MCL1 amplification, Fig. 2): reduced cell viability | cell viability (Sa-xeno-184 cells): reduce cell viability at relatively low concentrations

O=C(c1ccccc1O)c1[nH]c(Cl)c(Cl)c1-n1c(C(=O)c2ccccc2O)cc(Cl)c1Cl [Marinopyrrole A]
binding to Mcl-1 (Mcl-1 [2]): bind to Mcl-1 | binding to BCL-XL (BCL-xL): not to Bcl-XL

Cc1c(-c2c(-c3ccc(F)o3)sc3ncnc(O[C@H](Cc4ccccc4OCc4ccnn4CC(F)(F)F)C(=O)O)c23)ccc(OCCN2CCN(C)CC2)c1Cl [S63845]
binding to BCL-2 (BCL-2): not to bind | binding to BCL-XL (BCL-xL): not to bind

CN(Cc1cnc2nc(N)nc(N)c2n1)c1ccc(C(=O)N[C@@H](CCC(=O)O)C(=O)O)cc1 [MTX, methotrexate]
IC50 values (Sa-xeno-147 cells): not decreased | IC50 values (NOS-10 cells [1]; 72 hours): not decreased

Cc1cc(OCCCc2c3n(c4c(-c5c(C)nn(C)c5C)c(Cl)ccc24)[C@H](C)CN(c2cn(C)c4ccc(C(=O)O)cc24)C3=O)cc(C)c1Cl [VU661013]
inhibition of BCL-2 (BCL-2): does not significantly inhibit | inhibition of BCL-xL (BCL-xL): does not significantly inhibit

CC(C)C[C@H](NC(=O)[C@H](Cc1ccccc1)NC(=O)c1cnccn1)B(O)O [bortezomib]
osteosarcoma cell proliferation (cell viability) (osteosarcoma cells [3]): extensive inhibition of osteosarcoma cell proliferation

COc1cc(N2CCC(N)CC2)ccc1Nc1ncc(Cl)c(-c2c[nH]c3ccccc23)n1 [AZD3463]
IC50 value (NOS-10 cells [1]; 72 hours): significantly reduced | growth inhibitory effect (NOS-10 cells [1]; 72 hours): enhanced

CCc1c2c(nc3ccc(O)cc13)-c1cc3c(c(=O)n1C2)COC(=O)[C@]3(O)CC [SN-38]
activity relative to irinotecan (topoisomerase): 1000 times | osteosarcoma cell proliferation (cell viability) (osteosarcoma cells [3]): extensive inhibition of osteosarcoma cell proliferation

Cc1c(-c2ccc(N3CCc4cccc(C(=O)Nc5nc6ccccc6s5)c4C3)nc2C(=O)O)cnn1CC12CC3CC(CC(C3)C1)C2 [A-1331852]
cell viability (G-292 cells): most effective in reducing cell viability | cell viability (osteosarcoma cells [4]; A-1331852 alone, Fig. 3-5, Fig. 3-6): almost no effect on reduction of cell viability | cell viability (osteosarcoma cells [4]; A-1331852 in combination with AZD5991, Fig. 3-5): strong effect on reduction of cell viability | cell viability (osteosarcoma cells [4]; A-1331852 in combination with MIK665, Fig. 3-6): strong effect on reduction of cell viability

[NH2][Pt]([NH2])([Cl])[Cl] [CDDP, cisplatin]
IC50 values (Sa-xeno-147 cells): not decreased | IC50 values (NOS-10 cells [1]; 72 hours): not decreased

COC1=CC(c2cc3ccccc3[nH]2)=N/C1=C\c1[nH]c(C)cc1C [obatoclax]
Cmax [5]: 176 nM | IC50 (osteosarcoma cell lines): < 176 nM

Cc1c2c(nn1C)CSCc1cc(n(C)n1)CSc1cc(c3ccccc3c1)OCCCc1c(C(=O)O)n(C)c3c-2c(Cl)ccc13 [AZD5991]
cell viability (Sa-xeno-147 cells): moderate inhibitory effects | cell viability (NOS-10 cells [1]; AZD5991 combined with 3 µM Navitoclax, 72 hours, Fig. 4-2): increased the inhibitory effect on cell viability | cell viability (NOS-10 cells [1]; [8]): reduce cell viability at relatively low concentrations | cell viability (Sa-xeno-184 cells): reduce cell viability at relatively low concentrations

CC(C)C[C@H](NC(=O)[C@H](CCc1ccccc1)NC(=O)CN1CCOCC1)C(=O)N[C@@H](Cc1ccccc1)C(=O)N[C@@H](CC(C)C)C(=O)[C@@]1(C)CO1 [carfilzomib]
osteosarcoma cell proliferation (cell viability) (osteosarcoma cells [3]): extensive inhibition of osteosarcoma cell proliferation

Cc1nn(C)c(COc2ccc(N3CCN(S(=O)(=O)N(C)C)CC3)cc2)c1-c1cccc2c(CCCOc3cccc4ccccc34)c(C(=O)O)n(CCN3CCOCC3)c12 [A-1210477]
selectivity than other Bcl-2 family members (Mcl-1 [6]): ≥ 100 fold

COc1cccc2c1C(=O)c1c(O)c3c(c(O)c1C2=O)C[C@@](O)(C(=O)CO)C[C@@H]3O[C@H]1C[C@H](N)[C@H](O)[C@H](C)O1 [DOX, Doxorubicin]
IC50 values (Sa-xeno-147 cells): not decreased | IC50 values (NOS-10 cells [1]; 72 hours): not decreased

C[C@]1(O)C[C@@H](c2nc(-c3ccc4ccc(-c5ccccc5)nc4c3)c3c(N)nccn32)C1 [OSI906]
tumor growth (NOS-10 cells [7]): little effect on tumor growth | IC50 value (NOS-10 cells [1]; 72 hours): significantly reduced | growth inhibitory effect (NOS-10 cells [1]; 72 hours): enhanced
